# Measurements: patent US11406592B2, “Drug delivery methods, structures, and compositions for nasolacrimal system” (Mati Therapeutics Inc., priority 2006, dated 2022)
# Legend:
# [1] = Bimatoprost bulk sample elution, normalized to ng per device per day; type: physicochemical; conditions: for zero order elution rate: about 90 days
# Description: Bulk samples of 1% Bimatoprost having a known diameter of 0.076 cm (0.76 mm) were prepared. The height of each sample was determined from the weight and known diameter of the sample.
# The calculated heights ranged from 0.33 cm to 0.42 cm. The exposed surface area on each end of each bulk sample was approximately 0.045 cm^2, providing volumes of 0.019 cm^3 and 0.015 cm^3 for the 0.42 and 0.33 cm samples, respectively. The exposed an exposed surface area of samples calculated from the height and diameter without a drug sheath was approximately 0.1 cm^2. Three formulations were evaluated: 1) silicone 4011, 1% Bimatoprost, 0% surfactant; 2) silicone 4011, 1% Bimatoprost, approximately 11% surfactant; and 3) silicone 4011, 1% Bimatoprost, approximately 33% surfactant. The elution data measured for the bulk samples with formulation 1, 2 and 3 were normalized to ng per device per day (ng/device/day) assuming a surface area of the bulk device is 0.1 cm^2 and the surface area of the clinical device is 0.00078 cm^2 (0.3 mm diameter). […] The normalized elution profile is about 10 ng per day. […] Similar formulations can be used with drug core sheaths and a shaped exposed surface of the core exposed to the tear to increase the exposed surface area as described above and deliver the drug in therapeutic amounts over an extended period.
# In some embodiments, the core can comprise a 0.76 mm diameter core with an exposed surface diameter of 0.76 mm, corresponding to an exposed surface area of 0.0045 cm^2. The core can be covered with a sheath to define the exposed surface of the core as described above The normalized elution profile for such a device, based on the bulk sample data above, is approximately 6 times (0.0045 cm^2/0.00078 cm^2) the elution profile for the device with a 0.3 mm diameter exposed surface area. Thus, a zero order elution profile with an elution rate of about 60 ng per day can be obtained over a period of about 90 days. If the exposed surface area is increased to about 0.0078 cm2, for example with many of the exposed surface shapes as described above, the zero order elution rat is about 100 ng per day over a period of about 90 days. The concentration can also be increased from 1%. Similar elution profiles can be obtained with Latanoprost.
# IOP = conditions: cited from earlier work
# [2] = Latanoprost drug core elution study (in vitro), 7.4 pH buffer, HPLC; type: physicochemical; conditions: for Duration: calculated time when ~10% of original drug remains
# Text: Drug cores as described above have been fabricated with different cross sectional sizes of 0.006 inches, 0.012 inches, and 0.025 inches, and drug concentrations of 5%, 10% and 20% in a silicone matrix. Theses drug cores can be made with a Syringe Tube and Cartridge Assembly, Mixing Latanoprost with Silicone, and Injecting the mixture into a polyimide tube which is cut to desired lengths and sealed. The length of the drug cores were approximately 0.80 to 0.95 mm, which for a diameter of 0.012 inches (0.32 mm) corresponds to total Latanoprost content in the drug cores of approximately 3.5 μg, 7 μg and 14 μg for concentrations of 5%, 10% and 20%, respectively.
# Syringe Tube and Cartridge Assembly. 1. Take polyimide tubing of three different diameters 0.006 inches, 0.0125 inches and 0.025 inches. 2. Cut polyimide tubing of different diameters to ˜15 cm length. 3. Insert Polyimide tubes into a Syringe Adapter. 4. Adhesive bond polyimide tube into luer adapter (Loctite, low viscosity UV cure). 5. Trim end of assembly. 6. Clean the cartridge assembly using distilled water and then with methanol and dry it in oven at 60° C.
# Mix Latanoprost with Silicone. Prepare Latanoprost. Latanoprost is provided as a 1% solution in methylacetate. Place the appropriate amount of solution into a dish and using a nitrogen stream, evaporate the solution until only the Latanoprost remains. Place the dish with the Latanoprost oil under vacuum for 30 minutes. Combine Latanoprost with silicone. Prepare three different concentrations of Latanoprost (5%, 10% and 20%) in silicon Nusil 6385 and inject it into tubing of different diameters (0.006 in, 0.012 in and 0.025 inches) to generate 3×3 matrixes. The percent of Latanoprost to silicone is determined by the total weight of the drug matrix. Calculation: Weight of Latanoprost/(weight of Latanoprost+weight of silicone)×100=percent drug.
# Inject tube. 1. Insert Cartridge and Polyimide tubes assembly into 1 ml syringe. 2. Add one drop of catalyst, (MED-6385 Curing Agent) in the syringe. 3. Force excess catalyst out of the polyimide tube with clean air. 4. Fill syringe with silicone drug matrix. 5. Inject tube with drug matrix until the tube is filled or the syringe plunger becomes too difficult to push. 6. Close off the distal end of the polyimide tube and maintain pressure until the silicone begins to solidify. 7. Allow to cure at room temperature for 12 hours. 8. Place under vacuum for 30 minutes. 9. Place tube in right size trim fixture (prepared in house to hold different size tubing) and cut drug inserts to length (0.80-0.95 mm).
# Testing. Elution study (in vitro). 1. Place 10 plugs of same size and same concentration per centrifuge tube and add 1.5 ml of 7.4 pH buffer solution to it. 2. Change the solvent with fresh 7.4 pH buffer after appropriate time. 3. Take HPLC of the eluant at 210 nm with PDA detector 2996 using Sunfire C18, 3 mm×10 mm column (Waters Corporation, Milford, Mass.). Acetonitrile and water mixture is used for gradient elution. Calibration was done in house before and after each analysis, using in-house standards with precisely weighed concentration of Latanoprost. 4. Calculate the amount of drug release per day per device for different size tubings having different concentrations of Latanoprost. 5. Plot elution rate vs area and concentration for day 1 and day 14.
# [3] = Latanoprost elution from drug cores of four formulations (silicone 4011, 6385 and/or NaCl); type: physicochemical; conditions: formulations A-D, non-sterile drug cores
# Text: Drug cores were manufactured as described above with Latanoprost and silicone 4011, 6385 and/or NaCl. Four formulations were manufactured as follows: A) silicone 4011, approximately 20% Latanoprost, and approximately 20% NaCL; B) silicone 4011, approximately 20% Latanoprost, and approximately 10% NaCl; C) silicone 4011, approximately 10% Latanoprost, and approximately 10% NaCl; and D) silicone 6385, approximately 20% Latanoprost. […] The results shown are for non-sterile drug cores. Similar results have been obtained with sterile drug cores of Latanoprost.
compound,measurement,setting,value
CCNC(=O)CCC/C=C\C[C@@H]1[C@@H](/C=C/[C@@H](O)CCc2ccccc2)[C@H](O)C[C@@H]1O [Bimatoprost],release kinetics,"[1]; each of formulations 1-3, from about ten days to about 90 days",approximately zero order release kinetics
same,zero order elution rate,[1]; extrapolated from bulk data to 0.76 mm exposed surface diameter (0.0045 cm^2),about 60 ng per day
same,zero order elution rate,[1]; extrapolated from bulk data to exposed surface area about 0.0078 cm2,about 100 ng per day
same,normalized elution profile,"[1]; silicone 4011 with 1% Bimatoprost, formulations 1-3 (0%, 11%, 33% surfactant), normalized to 0.3 mm exposed surface diameter (0.00078 cm^2)",about 10 ng per day
CC(C)OC(=O)CCC/C=C\C[C@@H]1[C@@H](CC[C@@H](O)CCc2ccccc2)[C@H](O)C[C@@H]1O [Latanoprost],time effective in lowering IOP,IOP; about 200 ng of drug remaining on the eye after a drop of Xalatan,at least 24 hours
same,IOP reduction relative to the 50 μg/mL QD dose,IOP; lowest doses of 12.5 μg/mL QD or 15 μg/mL BID,60-75%
same,elution rate compared with the 14 μg core,"[2]; 7 μg core (10%), 0.32 mm diameter, 0.95 mm long, from 10 to 20 days",comparable rates
same,elution rate,"[2]; 14 μg core (20%), 0.32 mm diameter, 0.95 mm long, from about 10 to 40 days",approximately 100 ng per day
same,initial elution of Latanoprost from the plug,"[2]; buffered saline elution system, initially",approximately 500 ng per day
same,elution of Latanoprost from the plug after drop-off,"[2]; buffered saline elution system, within 7-14 days, depending on initial concentration",approximately 100 ng/day
same,quantity of Latanoprost released,"[2]; day 1, 0.006 inch diameter core (exposed surface area 0.02 mm^2)",about 200 ng
same,quantity of Latanoprost released,"[2]; day 1, 0.012 inch diameter core (exposed surface area 0.07 mm^2)",~400 ng
same,quantity of Latanoprost released,"[2]; day 1, 0.025 inch diameter core (exposed surface area 0.32 mm^2)",~1200 ng
same,quantity of Latanoprost released,"[2]; day 14, 0.006 inch diameter core (exposed surface area 0.02 mm^2)",about 25 ng
same,quantity of Latanoprost released,"[2]; day 14, 0.012 inch (0.32 mm) diameter core (exposed surface area 0.07 mm^2)",~100 ng
same,quantity of Latanoprost released,"[2]; day 14, 0.025 inch diameter core (exposed surface area 0.32 mm^2)",~300 ng
same,Duration,[2]; total Latanoprost content 3.5 μg,~25 days
same,Duration,[2]; total Latanoprost content 7 μg,~45 days
same,Duration,[2]; total Latanoprost content 14 μg,~100 days
same,elution rate,[3]; by 3 weeks (21 days),about 100 ng per device per day
same,initial elution rate,[3]; initial,approximately 300 ng per device per day
